The values that follow are results of earlier work, collected in patent US20110262540A1, “Solid Pharmaceutical Composition Comprising Exemestane” (ARROW INTERNATIONAL LIMITED, priority 2008, published 2011).

The structures appear in SMILES notation.

`C=C1C[C@@H]2[C@H](CC[C@]3(C)C(=O)CC[C@@H]23)[C@@]2(C)C=CC(=O)C=C12` [Exemestane, 6-methylenandrosta-1,4-diene-3,17-dione]: the Solubility in water result was “practically insoluble in water”.
